One test concerns the target T1, PI3Kδ (Homo sapiens, UniProt O00329).
T1 construct: purchased DiscoveRx Corporation, San Diego (contract service, KINOMEscan)
T1 sequence (O00329 1-1044): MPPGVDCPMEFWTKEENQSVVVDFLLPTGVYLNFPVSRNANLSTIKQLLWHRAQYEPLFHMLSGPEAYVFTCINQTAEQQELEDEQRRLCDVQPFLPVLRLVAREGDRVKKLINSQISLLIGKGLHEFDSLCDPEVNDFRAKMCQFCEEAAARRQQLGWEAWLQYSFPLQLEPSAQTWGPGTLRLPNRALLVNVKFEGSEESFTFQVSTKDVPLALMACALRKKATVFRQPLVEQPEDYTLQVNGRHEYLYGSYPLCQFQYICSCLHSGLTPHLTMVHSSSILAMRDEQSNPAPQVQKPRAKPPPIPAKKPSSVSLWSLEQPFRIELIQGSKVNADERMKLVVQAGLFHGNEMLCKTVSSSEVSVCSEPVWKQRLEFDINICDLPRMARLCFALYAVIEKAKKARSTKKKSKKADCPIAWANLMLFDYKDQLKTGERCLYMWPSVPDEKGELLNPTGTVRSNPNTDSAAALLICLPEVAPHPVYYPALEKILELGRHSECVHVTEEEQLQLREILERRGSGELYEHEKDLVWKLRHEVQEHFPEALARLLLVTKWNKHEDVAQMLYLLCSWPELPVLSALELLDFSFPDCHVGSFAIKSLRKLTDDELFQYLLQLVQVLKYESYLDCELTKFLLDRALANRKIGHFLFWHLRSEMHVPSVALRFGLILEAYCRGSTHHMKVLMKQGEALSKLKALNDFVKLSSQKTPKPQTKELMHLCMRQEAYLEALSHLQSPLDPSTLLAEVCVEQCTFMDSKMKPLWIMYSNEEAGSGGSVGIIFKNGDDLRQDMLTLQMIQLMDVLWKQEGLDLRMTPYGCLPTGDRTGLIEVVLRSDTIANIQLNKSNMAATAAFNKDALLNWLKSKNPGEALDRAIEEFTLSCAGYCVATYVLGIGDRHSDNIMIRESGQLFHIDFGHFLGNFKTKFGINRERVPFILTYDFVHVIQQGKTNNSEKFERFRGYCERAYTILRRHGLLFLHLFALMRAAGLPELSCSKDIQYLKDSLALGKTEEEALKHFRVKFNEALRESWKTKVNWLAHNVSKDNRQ
As to the kind of experiment: Enzyme binding assay (KINOMEscan, DiscoveRx). The following applies: PIK3Cδ_h. Here is the method:
(§1) Enzyme Binding Assays (KINOMEscan®)
(§2) Kinase enzyme binding affinities of compounds disclosed herein were determined using the KINOMEscan technology performed by DiscoveRx Corporation, San Diego, Calif., USA (www.kinomescan.com).

In test [1] the test system is Akt phosphorylated at Ser473 in PC-3 cells. The experiment in a line: Cellular assay: phosphorylation of Akt at Ser473 in PC-3 cells (MSD ELISA). It counts as cell-based. As to conditions: PC-3 cells, 60 min compound incubation, MSD ELISA, read-out: IC50 pAkt_S473. On the procedure: (§3) Cellular activity of PI3KP inhibitors was determined by quantifying the phosphorylation of Akt in PC-3 cells. Akt phosphorylated at Ser473 and Thr308 were measured using an enzyme-linked immunosorbent assay (ELISA; Meso Scale Discovery (MSD), Gaithersburg. Md.) and specific primary antibodies from MSD.
(§4) On day 2, compound or DMSO (0.3%) was added and cells were further incubated for 60 min at 37° C. 5% CO2 in a total volume of 100 μl of medium.
(§5) The phosphoprotein assay was executed according to vendor instructions in the Phospho-Akt (Ser473) Assay Whole Cell Lysate Kit (MSD # K15100D-3) and the Phospho-Akt (Thr308) Assay Whole Cell Lysate Kit (MSD # K151DYD-3) using the lysis, blocking and wash buffer provided.
(§6) Briefly, at the end of the cell treatment period, media were removed by aspiration and adherent cells were lysed in 50 μl ice-cold lysis buffer. MSD plates are supplied pre-coated with capture antibodies for Phospho-Akt (Ser473 and Thr308). After blocking, lysates from tissue culture plates were added and plates were washed. Then, a solution containing the detection antibody (anti-total Akt conjugated with an electrochemiluminescent compound-MSD Sulfo-tag label) was added. The signals were detected using an MSD SECTOR Imager 6000 and are proportional to the phospho-Akt titres.
(§7) Data were processed. […] From these concentration-response curves, the IC50 values were calculated. Five concentrations were used for curve fitting.

In test [2] the target is T2, kinase enzymes (Homo sapiens, UniProt P48736).
T2 construct: purchased DiscoveRx Corporation, San Diego (contract service, KINOMEscan)
As to the kind of experiment: Enzyme binding assay (KINOMEscan, DiscoveRx), further kinases of Table A. As to conditions: PIK3Cγ_h. On the procedure:
as §1, §2

For test [3], the target named is T3, kinase enzymes (Homo sapiens, UniProt P42336).
T3 construct: purchased DiscoveRx Corporation, San Diego (contract service, KINOMEscan)
The description is as above. The following applies: PIK3Cα_h. Here is the method:
as §1, §2

In test [4] the target is T4, kinase enzymes (Homo sapiens, UniProt P42345).
T4 construct: purchased DiscoveRx Corporation, San Diego (contract service, KINOMEscan)
The test is described as above. As to conditions: MTOR_h. On the procedure: as §1, §2

Another test concerns the target T5, PI3Kβ (Homo sapiens, UniProt P42338).
T5 construct: purchased DiscoveRx Corporation, San Diego (contract service, KINOMEscan)
The experiment in a line: Enzyme binding assay (KINOMEscan, DiscoveRx). On the procedure: as §1
Kinase enzyme binding affinities of compounds disclosed herein were determined using the KINOMEscan technology performed by DiscoveRx Corporation, San Diego, Calif., USA (www.kinomescan.com). Table A reports the obtained Kd values (nM), with the Kd being the inhibitor binding constant: […]

Test [5] concerns Akt phosphorylated at Thr308 in PC-3 cells. The experiment in a line: Cellular assay: phosphorylation of Akt at Thr308 in PC-3 cells (MSD ELISA). It counts as cell-based. The following applies: PC-3 cells, 60 min compound incubation, MSD ELISA, read-out: IC50 pAkt_Thr308. On the procedure:
as §3, §4, §5, §6, §7

The mark [6] stands for this setting: PIK3Cβ_h, read-out: Kd PIK3Cβ_h.

Like-named read-outs stand apart in the source and are kept apart here.

T2 sequence (P48736 whole entry): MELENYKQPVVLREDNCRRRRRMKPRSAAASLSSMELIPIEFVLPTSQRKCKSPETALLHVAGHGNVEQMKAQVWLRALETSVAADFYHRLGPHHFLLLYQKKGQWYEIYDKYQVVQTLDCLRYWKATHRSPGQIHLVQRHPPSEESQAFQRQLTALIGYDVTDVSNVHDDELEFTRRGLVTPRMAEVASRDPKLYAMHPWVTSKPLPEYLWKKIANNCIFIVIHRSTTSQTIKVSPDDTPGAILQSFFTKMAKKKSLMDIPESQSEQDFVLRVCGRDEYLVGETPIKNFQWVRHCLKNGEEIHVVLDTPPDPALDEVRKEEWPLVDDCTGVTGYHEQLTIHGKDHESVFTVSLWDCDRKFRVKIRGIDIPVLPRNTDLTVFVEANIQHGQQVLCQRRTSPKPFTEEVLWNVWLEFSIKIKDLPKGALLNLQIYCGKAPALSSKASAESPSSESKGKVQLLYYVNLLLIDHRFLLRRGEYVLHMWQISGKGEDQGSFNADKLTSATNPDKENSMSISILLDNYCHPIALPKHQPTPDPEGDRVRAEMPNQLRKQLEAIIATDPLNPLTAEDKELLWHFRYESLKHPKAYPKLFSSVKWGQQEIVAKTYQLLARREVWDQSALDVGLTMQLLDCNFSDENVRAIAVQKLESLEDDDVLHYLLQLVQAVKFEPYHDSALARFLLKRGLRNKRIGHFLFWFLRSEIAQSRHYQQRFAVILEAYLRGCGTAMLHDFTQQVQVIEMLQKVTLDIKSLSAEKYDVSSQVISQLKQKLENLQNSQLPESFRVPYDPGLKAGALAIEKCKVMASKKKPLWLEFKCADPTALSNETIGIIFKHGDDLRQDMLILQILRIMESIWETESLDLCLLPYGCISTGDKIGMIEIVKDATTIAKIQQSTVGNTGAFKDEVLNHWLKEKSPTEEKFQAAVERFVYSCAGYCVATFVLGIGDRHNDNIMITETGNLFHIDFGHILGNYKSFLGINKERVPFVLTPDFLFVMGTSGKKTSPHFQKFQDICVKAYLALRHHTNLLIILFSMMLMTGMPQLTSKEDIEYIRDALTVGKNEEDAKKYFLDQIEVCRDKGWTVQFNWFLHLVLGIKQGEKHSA
T5 sequence (P42338 whole entry): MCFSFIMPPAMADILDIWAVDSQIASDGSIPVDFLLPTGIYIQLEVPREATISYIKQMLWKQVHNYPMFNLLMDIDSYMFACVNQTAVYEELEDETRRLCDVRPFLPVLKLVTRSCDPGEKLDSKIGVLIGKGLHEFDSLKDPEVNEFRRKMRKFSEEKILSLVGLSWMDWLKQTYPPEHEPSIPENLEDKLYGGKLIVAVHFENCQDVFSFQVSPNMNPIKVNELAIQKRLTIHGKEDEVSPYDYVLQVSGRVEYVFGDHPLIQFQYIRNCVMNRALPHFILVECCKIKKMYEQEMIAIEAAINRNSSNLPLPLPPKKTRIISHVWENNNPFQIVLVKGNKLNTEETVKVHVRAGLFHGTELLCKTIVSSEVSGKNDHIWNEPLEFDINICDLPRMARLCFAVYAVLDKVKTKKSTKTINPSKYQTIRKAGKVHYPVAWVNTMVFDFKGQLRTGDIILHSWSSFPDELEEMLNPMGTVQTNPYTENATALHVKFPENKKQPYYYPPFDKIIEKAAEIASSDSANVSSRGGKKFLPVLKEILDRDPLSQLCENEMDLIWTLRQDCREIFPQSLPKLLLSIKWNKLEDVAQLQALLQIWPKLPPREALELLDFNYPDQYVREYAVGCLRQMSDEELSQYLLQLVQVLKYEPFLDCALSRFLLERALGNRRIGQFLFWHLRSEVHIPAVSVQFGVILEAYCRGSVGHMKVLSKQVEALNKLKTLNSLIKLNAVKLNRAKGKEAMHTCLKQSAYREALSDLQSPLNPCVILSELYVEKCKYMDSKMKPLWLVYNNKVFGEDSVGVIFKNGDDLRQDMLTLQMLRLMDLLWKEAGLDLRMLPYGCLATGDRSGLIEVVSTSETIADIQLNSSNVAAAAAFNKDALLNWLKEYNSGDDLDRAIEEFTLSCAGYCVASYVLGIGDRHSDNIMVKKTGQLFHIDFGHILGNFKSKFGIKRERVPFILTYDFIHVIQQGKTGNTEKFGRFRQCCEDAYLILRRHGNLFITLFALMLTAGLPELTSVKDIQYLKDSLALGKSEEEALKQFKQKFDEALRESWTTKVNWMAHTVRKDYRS
T3 sequence (P42336 whole entry): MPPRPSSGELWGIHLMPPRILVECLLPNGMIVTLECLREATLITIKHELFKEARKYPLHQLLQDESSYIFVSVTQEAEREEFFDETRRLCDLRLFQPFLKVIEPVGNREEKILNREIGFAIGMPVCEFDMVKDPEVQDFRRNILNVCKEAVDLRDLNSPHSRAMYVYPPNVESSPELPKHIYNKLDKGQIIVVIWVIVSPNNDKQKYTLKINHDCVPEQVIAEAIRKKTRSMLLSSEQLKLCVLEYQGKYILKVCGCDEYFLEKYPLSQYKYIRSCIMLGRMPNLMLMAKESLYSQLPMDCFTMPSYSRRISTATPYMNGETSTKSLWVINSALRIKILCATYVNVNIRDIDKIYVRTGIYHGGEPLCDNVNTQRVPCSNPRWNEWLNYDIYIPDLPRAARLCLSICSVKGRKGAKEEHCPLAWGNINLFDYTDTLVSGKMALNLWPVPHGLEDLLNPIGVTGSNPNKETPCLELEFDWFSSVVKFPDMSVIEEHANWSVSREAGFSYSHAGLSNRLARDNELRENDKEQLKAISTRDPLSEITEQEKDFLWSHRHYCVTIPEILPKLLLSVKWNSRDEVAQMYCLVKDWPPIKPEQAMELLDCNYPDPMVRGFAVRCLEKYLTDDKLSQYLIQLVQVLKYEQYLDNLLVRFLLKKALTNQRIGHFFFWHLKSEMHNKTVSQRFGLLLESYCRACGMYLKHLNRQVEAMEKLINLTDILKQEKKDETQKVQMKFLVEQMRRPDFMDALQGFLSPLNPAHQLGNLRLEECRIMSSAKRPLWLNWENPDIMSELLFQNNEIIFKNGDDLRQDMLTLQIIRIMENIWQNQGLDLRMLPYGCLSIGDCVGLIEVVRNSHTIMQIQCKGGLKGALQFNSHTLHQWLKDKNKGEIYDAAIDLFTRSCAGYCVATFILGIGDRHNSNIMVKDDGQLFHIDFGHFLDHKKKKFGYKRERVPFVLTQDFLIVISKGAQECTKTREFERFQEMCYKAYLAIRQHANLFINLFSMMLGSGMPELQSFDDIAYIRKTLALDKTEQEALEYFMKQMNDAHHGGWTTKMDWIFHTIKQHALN

Consider `CC(Oc1cc(F)cc(F)c1)c1cc(C(=O)N2CCC2)cc2ncc(N3CCO[C@H](CO)C3)nc12` (mixture of isomers) [Compound 81], for which the Kd at PI3Kδ was 2630 nM; at kinase enzymes [2] it was 29500 nM; at kinase enzymes [3], 19100 nM; on kinase enzymes [4], more than 30200 nM; on PI3Kβ (setting [6]), 30 nM. Further, the IC50 in test [1] (Homo sapiens, PC-3, 1 h) was approximately 490 nM; in test [5] (Homo sapiens, PC-3, 1 h) it was 219 nM.

For the molecule `CC(Oc1cc(F)cc(F)c1)c1cc(C(=O)N(C)CCO)cc2ncc(N3CCOCC3)nc12` (racemic) [Compound 59], the Kd was 331 nM on PI3Kδ; 10700 nM on kinase enzymes [2]; 1200 nM at kinase enzymes [3]; more than 30200 nM at kinase enzymes [4]; 3 nM at PI3Kβ (setting [6]). Also, the half-maximal inhibitory concentration (IC50) in test [1] (Homo sapiens, PC-3, 1 h) is 263 nM; in test [5] (Homo sapiens, PC-3, 1 h) it was 110 nM.

Take `CC(C)NCCNC(=O)c1cc(C(C)Oc2ccc(F)c(F)c2)c2nc(N3CCOCC3)cnc2c1` (racemic) [Compound 286]: the Kd is 2040 nM at PI3Kδ; 17000 nM at kinase enzymes [2]; 7410 nM on kinase enzymes [3]; more than 30200 nM on kinase enzymes [4]; 18 nM at PI3Kβ (setting [6]). In addition, the IC50 amounted to 398 nM in test [1] and 245 nM in test [5].

For the molecule `CC(Oc1cccc(F)c1)c1cc(C(=O)N(C)C)cc2ncc(N3CCOCC3)nc12` (racemic) [Compound 339], the Kd came out at 2460 nM on PI3Kδ; 9330 nM on kinase enzymes [2]; 5890 nM at kinase enzymes [3]; 16200 nM on kinase enzymes [4]; 427 nM at PI3Kβ (setting [6]). Moreover, the IC50 in test [1] and in test [5] was more than 513 nM throughout.

Turning to `CC(Oc1cc(F)cc(F)c1)c1cc(C(=O)N(C)C)cc2ncc(N3CCOCC3)nc12` (single isomer, unassigned) [Compound 5], the Kd at PI3Kδ amounted to 225 nM; on kinase enzymes [2], 7980 nM; at kinase enzymes [3], 1590 nM; at kinase enzymes [4] it was 25100 nM; at PI3Kβ (setting [6]), 2 nM. Moreover, the figures for the IC50 in test [1] and in test [5] were 100 nM and 99 nM, respectively.

`CC(Oc1cc(F)cc(F)c1)c1cc(C(=O)N(C)C)cc2ncc(N3CCOCC3)nc12` (single isomer, unassigned) [Compound 6]: the Kd at PI3Kδ is 16900 nM; at kinase enzymes [2] it was more than 30200 nM; on kinase enzymes [3], 26000 nM; at kinase enzymes [4], more than 30200 nM; on PI3Kβ (setting [6]), 1890 nM. The IC50 in test [1] and in test [5] was more than 513 nM in each case.

Turning to `CC(Nc1cc(F)cc(F)c1)c1cc(C(=O)N2CCOCC2)cc2ncc(N3CCOCC3)nc12` (single isomer, unassigned) [Compound 9], the Kd was 18200 nM on PI3Kδ; more than 30200 nM on kinase enzymes [2]; 27500 nM on kinase enzymes [3]; more than 30200 nM at kinase enzymes [4]; 417 nM on PI3Kβ (setting [6]). Also, the IC50 in test [1] and in test [5] was more than 513 nM throughout.

`CC(O)c1cc(C2CCCN2c2cc(F)cc(F)c2)c2nc(N3CCOCC3)cnc2c1` (single isomer, unassigned) [Compound 15]: the Kd on PI3Kδ was 43 nM; at kinase enzymes [2], 372 nM; at kinase enzymes [3] it was 234 nM; on kinase enzymes [4], more than 30200 nM; at PI3Kβ (setting [6]) it was 1 nM. Further, the IC50 is 4 nM in test [1] and 2 nM in test [5].

With `C[C@@H]1CN(c2cnc3cc(C(=O)N(C)C)cc(C4CCCN4c4cccc(F)c4)c3n2)CCO1` (single isomer, unassigned) [Compound 29], the dissociation constant Kd was 21900 nM on PI3Kδ; more than 30200 nM at kinase enzymes [2]; 10200 nM on kinase enzymes [3]; 23400 nM on kinase enzymes [4]; 1660 nM on PI3Kβ (setting [6]). Further, the IC50 in test [1] and in test [5] was more than 513 nM each time.

For `C[C@@H]1CN(c2cnc3cc(C(=O)N(C)C)cc(C4CCCN4c4cccc(F)c4)c3n2)CCO1` (single isomer, unassigned) [Compound 30], the Kd at PI3Kδ amounted to 18 nM; on kinase enzymes [2], 407 nM; at kinase enzymes [3] it was 39 nM; at kinase enzymes [4], 21900 nM; on PI3Kβ (setting [6]), 1 nM. Further, the IC50 in test [1] is 5 nM; in test [5] it was approximately 4 nM.

As to `CN1CCN(C(=O)c2cc(C3CCCN3c3cc(F)cc(F)c3)c3nc(N4CCOCC4)cnc3c2)CC1` (single isomer, unassigned) [Compound 58], the Kd on PI3Kδ was 912 nM; on kinase enzymes [2] it was 18600 nM; on kinase enzymes [3], 2000 nM; on kinase enzymes [4] it was more than 30200 nM; on PI3Kβ (setting [6]) it was 9 nM. Also, the IC50 in test [1] is more than 513 nM; in test [5], 295 nM.

For the molecule `CC(Nc1ccc(F)c(F)c1)c1cc(C(=O)NCCO)cc2ncc(N3CCOCC3)nc12` (single isomer, unassigned) [Compound 279b], the IC50 is 59 nM in test [1] and more than 513 nM in test [5]. The Kd on kinase enzymes [2] was 6460 nM; on kinase enzymes [3], 26300 nM; at kinase enzymes [4], more than 30200 nM; on PI3Kβ (setting [6]), 1910 nM.

Consider `CN(C)C(=O)c1cc([C@@H]2CCCN2c2cc(F)cc(F)c2)c2nc(N3CCOCC3)cnc2c1` [Compound 2], for which the Kd at PI3Kδ amounted to 16400 nM; on kinase enzymes [3] it was 12300 nM; at PI3Kβ (setting [6]), 1090 nM. Moreover, the concentration for half-maximal inhibition (IC50) was more than 513 nM in test [1] (Homo sapiens, PC-3, 1 h) and more than 513 nM in test [5] (Homo sapiens, PC-3, 1 h).

Turning to `C[C@@H](Nc1cc(F)cc(F)c1)c1cc(C(=O)NCCN(C)C)cc2ncc(N3CCOCC3)nc12` [Compound 184a], the results for the IC50 in test [1] and in test [5] were 3 nM and 2 nM, respectively. The Kd was determined as 1480 nM at kinase enzymes [2], 806 nM on kinase enzymes [3], 21900 nM at kinase enzymes [4] and 0.1 nM on PI3Kβ (Kd PIK3Cβ_h).

Turning to `C[C@@H](Nc1cc(F)cc(F)c1)c1cc(C(=O)NCCN(C)C)cc2ncc(N3CCOCC3)nc12` [Compound 184b], the values for the IC50 in test [1] and in test [5] were 3 nM and 2 nM, respectively. The Kd on kinase enzymes [2] is 1100 nM; at kinase enzymes [3], 589 nM; on kinase enzymes [4], 20000 nM; at PI3Kβ (read-out: Kd PIK3Cβ_h), 0.1 nM.

In the case of `C[C@@H](Nc1cc(F)cc(F)c1)c1cc(C(=O)NCCN(C)C)cc2ncc(N3CCOCC3)nc12` [Compound 184c], the IC50 came out at 4 nM in test [1] and 2 nM in test [5]. Further, the Kd amounted to 1270 nM on kinase enzymes [2], 829 nM on kinase enzymes [3], 24000 nM on kinase enzymes [4] and 0.1 nM on PI3Kβ (read-out: Kd PIK3Cβ_h).

The term Kd denotes a measure of binding affinity in units of concentration. Broadly, the IC50 is the midpoint of a concentration-inhibition curve.

Source of the values: patent US10526316B2, “Quinoxaline and pyridopyrazine derivatives as PI3Kβ inhibitors” (Janssen Pharmaceutica NV, priority 2015, dated 2020).
